# Entries after “also recorded” stand apart in the source; their conditions may differ.
# Experiments:
# [1] = test system: dopaminergic fibers from the lower layers of the prefrontal cortex; test: Intracerebral stereotaxic injections of 6-hydroxydopamine eliminating dopaminergic fibers in adult rats; assay type: in vivo, rat; settings: unpublished work by the inventor
# From the text: In the normal brain, dopaminergic fibers are distributed mainly in lower layers of the prefrontal cortex, Dopaminergic-fibers are abnormally distributed within the prefrontal cortex in schizophrenic patients with very low density in the lower layers (Akil, Pierri, Whitehead, Edgar, Mohila, Sampson and Lewis, American Journal of Psychiatry 1999, 156:1580-1589). […] Based on this work the inventor believed that abnormal laminar distribution of dopaminergic fibers in the prefrontal cortex may be responsible for the enhanced dopaminergic activity seen in schizophrenia. While abnormal distribution of dopaminergic fibers has been described in the prefrontal cortex in schizophrenic brains (Akil, Pierri, Whitehead, Edgar, Mohila, Sampson and Lewis, American Journal of Psychiatry 1999, 156:1580-1589), this has never implicated in the manifestation of dopaminergic hyperactivity.
# [2] = test system: subcortical dopamine responsivity; test: Behavioral testing (sniffing, locomotion, rearing) after saline or d-amphetamine challenge; assay type: in vivo, rat
# Protocol: Animals at 5 or 10 weeks of age were habituated to the testing area for three hours each on 2 consecutive days. On the 3rd day, animals were habituated for an hour and then injected with saline (0.2 ml, l.p.) and their behaviors were monitored visually for an hour. They were then injected with d-amphetamine (5 mg/kg, l.p.) and their behaviors were monitored for an additional one-hour. An examiner who was blind to the animal groups performed testing. Several behavioral measures including locomotion, rearing (vertical activity), sniffing and grooming were monitored. Different cohorts of animals were used for testing at 5 and 10 weeks. For stress response, animals were submerged in water at room temperature for 5 min in a large container, then they were placed in a plexiglass box and their behaviors (similar to those described above) were visually monitored,
# For novelty induced stress response, animals were subjected to novel environment or object and their motor behaviors were monitored. Behavioral data was analyzed using standard statistical methods (Rajakumar, Laurier, Niznik and Stoessi, Synapse 1997, 26: 199-208).
# [3] = target: T1, (Homo sapiens, UniProt P08138); settings: cited from earlier work
# T1 sequence (P08138 29-427): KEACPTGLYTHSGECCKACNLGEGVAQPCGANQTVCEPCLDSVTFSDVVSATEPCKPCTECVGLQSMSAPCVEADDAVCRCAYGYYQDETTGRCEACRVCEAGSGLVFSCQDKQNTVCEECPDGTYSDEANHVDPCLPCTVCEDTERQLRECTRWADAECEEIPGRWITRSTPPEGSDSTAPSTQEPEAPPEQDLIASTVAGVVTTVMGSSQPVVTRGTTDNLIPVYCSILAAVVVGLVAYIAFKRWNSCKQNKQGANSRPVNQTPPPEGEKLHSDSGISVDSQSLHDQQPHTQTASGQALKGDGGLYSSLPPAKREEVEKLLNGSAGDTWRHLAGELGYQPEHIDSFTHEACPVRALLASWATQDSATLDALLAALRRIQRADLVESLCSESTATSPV
# prefrontal cortex = test: Histological examination and immunohistochemistry of brains of neonatally injected rats; assay type: in vivo, rat
# Protocol: […] Brains were removed, cryoprotected in 18% buffered-sucrose for 24 hours at 4° C., and sectioned in a freezing microtome 40 μm thick sections were processed for Nissl staining and immunohistochemistry as described previously (Rajakumar, Elisevich and Flumerfelt, Journal of Comparative Neurology 1994, 350:324-336).
# [4] = test system: subplate cells in the developing prefrontal cortex; test: Apoptosis of subplate cells after neonatal intracerebral injections of nerve growth factor (activated caspase-3 immunoreactivity); assay type: in vivo, rat; settings: for apoptosis of subplate cells / neurons: intracerebral injections into developing prefrontal cortex of postnatal rats (250 ng/μl/site, postnatal days 3 and 4)
# Protocol: Neonatal rat pups received daily injections of nerve growth factor into the developing prefrontal cortex at 2, 3 and 4 days of age (similarly other animals such as mice or monkeys can be injected at the appropriate neonatal or fetal period of prefrontal cortical development characterized by the expression of p75 receptor in subplate cells). Scalp of rat pups were sprayed with a topical anesthesia, and 1 μl of nerve growth factor ([…] in saline, human recombinant Nerve growth factor, Cedarlane Laboratories) was pressure injected with a 30 gauges needle into the developing prefrontal cortex on each side. Injections were made 1.5 mm in front of the bregma which is visible through the scalp, 0.5 mm lateral to the midline and 1.5 mm deep to the scalp surface. Injections were made slowly over 10 sec and the needle was left in situ for an additional 30 sec. Pups were kept separated from their mother for approximately 20 min during injecttion sessions. During this time they were kept warm. Control rat pups received exactly similar treatment but injected with saline. Experimental and control rats were marked with an ear punch on the right and left ears, respectively. After injection session pups were returned to their mother and allowed to grow under standard conditions.
# Both neonatally nerve growth factor or saline injected rats were anesthetized with an intraperitoneal injection of sodium pentobarbital (Somnatol, 40 mg/kg) at 5 weeks or 10 weeks of age and perfused transcardially with a solution containing 4% freshly depolymerized paraformaldehyde in 0.1 M phosphate buffer at pH 7.4. Brains were removed, cryoprotected in 18% buffered-sucrose for 24 hours at 4° C., and sectioned in a freezing microtome 40 μm thick sections were processed for Nissl staining and immunohistochemistry as described previously (Rajakumar, Elisevich and Flumerfelt, Journal of Comparative Neurology 1994, 350:324-336).
# [5] = at 5 weeks, d-amphetamine 5 mg/kg i.p. vs saline, control and experimental animals
# [6] = at 5 weeks, saline or d-amphetamine challenge, n=30
# [7] = at 10 weeks, d-amphetamine challenge, n=36
# [8] = adult rat, neonatal injections, vs control
compound,measurement,setting,value
NCCc1cc(O)c(O)cc1O [6-hydroxydopamine],subcortical dopaminergic activity to systemic injections of amphetamine,[1],markedly enhanced subcortical dopaminergic activity
"C[C@H](N)Cc1ccccc1 [d-amphetamine, reference compound]",effect of amphetamine injection on sniffing,[2]; [5],increases sniffing in both groups of animals
same,effect of amphetamine injection on total duration of locomotion,[2]; [5],increases the total duration of locomotion in both groups of animals
same,effect of amphetamine injection on sniffing,"[2]; at 10 weeks, d-amphetamine 5 mg/kg i.p. vs saline, control and experimental animals",increases sniffing in both groups of animals
Pro-nerve growth factor,increased affinity for p76 receptors,[3],> 1000 fold
nerve growth factor,subcortical dopaminergic responsivity,"[2]; adult (after the 8th week), injections of d-amphetamine",enhanced subcortical dopamine responsivity; also recorded: increased subcortical dopaminergic responsivity
same,response to changes in the environment,"[2]; after the 8th week, neonatally injected rats",prolonged and enhanced response
same,"total duration of locomotor behavior, experimental vs control animals",[2]; [6],no differences
same,"total duration of rearing behavior, experimental vs control animals",[2]; [6],no differences
same,"total duration of sniffing behavior, experimental vs control animals",[2]; [6],no differences
same,"total duration of locomotor behavior, experimental vs control animals",[2]; [7],significantly increased locomotor behavior
same,"total duration of rearing behavior, experimental vs control animals",[2]; [7],significantly increased rearing
same,"total duration of sniffing behavior, experimental vs control animals","[2]; at 10 weeks, saline or d-amphetamine challenge, n=36",no differences
same,"growth and behavioral patterns, experimental vs control rats",[2]; until 8 weeks of age,comparable growth and behavioral patterns
same,parvalbumin neuronal number in the prefrontal cortex,"prefrontal cortex; adult rat, control vs NGF-treated",comparable
same,GABA transporter-1 immunoreactive synapses in the prefrontal cortex,prefrontal cortex; [8],fewer; also recorded: markedly diminished
same,density of tyrosine hydroxylase labeled (dopaminergic) fibers in lower layers of the prefrontal cortex,prefrontal cortex; [8],considerably decreased; also recorded: decreased density
same,laminar distribution of parvalbumin immunoreactive terminals in the prefrontal cortex,prefrontal cortex; [8],altered laminar distribution of parvalbumin immunoreactive terminals
same,GABA transporter-1 immunoreactive synapses in the prefrontal cortex,"prefrontal cortex; adult rat, neonatal injections, vs control, listed as NGF",markedly diminished
same,density of tyrosine hydroxylase labeled (dopaminergic) fibers in lower layers of the prefrontal cortex,"prefrontal cortex; adult rat, neonatal injections, vs control, listed as Nerve growth factor",decreased dopaminergic fibers
same,gross structure throughout the brain,prefrontal cortex; histological examination of neonatally injected rats,apparently normal gross structure
same,laminar distribution of GABAergic terminals in the prefrontal cortex,prefrontal cortex; injected animals as adults,altered laminar distribution
same,lateral and third ventricular size,prefrontal cortex; neonatally injected rats in comparison to control animals,moderately enlarged; also recorded: relatively larger
same,volume of lateral ventricles,"prefrontal cortex; rat sacrificed at 6 months of age, neonatal injections, vs control",increased considerably
same,apoptosis of subplate cells / neurons,[4],resulting in apoptosis of the subplate cells; also recorded: specifically induced apoptosis of subplate neurons
same,apoptosis of subplate cells / neurons,[4]; listed as NGF,induces apoptosis
same,effect on the hippocampus or other parts of the cerebral cortex,"[4]; method of injection adopted, neonatal period",does not affect the hippocampus or any other parts of the cerebral cortex
same,"mechanical, ischemic or inflammatory lesion","[4]; postnatal rat brain, intracerebral injections","without causing any substantial mechanical, ischemic or inflammatory lesion"
same,immunoreactivity of activated caspase-3 in subplate cells,"[4]; six day-old rat pup, daily intracerebral injections on postnatal days 2, 3 and 4",undergoing apoptosis
